Assay results published in publication PMC3068151 (PLoS ONE, 2011).

Tests used:
EphA kinases = test: ELISA displacement of biotinylated ephrinA1-Fc from immobilized EphA-Fc ectodomains; format: binding; conditions: biotinylated ephrinA1-Fc at KD concentration
Method: Our chemical collection (Table S1) was stocked in a 20 mM dimethyl sulfoxide (DMSO) solution and we performed binding assay at a concentration of 200 µM. Only compounds displacing more than 40% ephrinA1 from EphA2 receptor were considered for a full concentration-binding curve. […] The day after wells were washed three times with washing buffer (PBS +0.05% tween20, pH 7.5) and blocked with 300 µl of blocking solution (PBS +0.5% BSA) for 1 hour at 37°C. Compounds were added to the wells at proper concentration in 1% dimethyl sulfoxide (DMSO) and incubated at 37°C for 1 hour. Biotinylated ephrinA1-Fc (R&D BT602) was added at 37°C for 4 hours at 30 ng/ml in displacement assays or in a range from 1 to 2000 ng/ml in saturation studies. […] The reaction was stopped with 3N HCl 100 µl/well and the absorbance was measured using an ELISA plate reader (Sunrise, TECAN, Switzerland) at 450 nm.
Data are the means of at least three independent experiments ± st. err.

EphA2-ephrinA1 binding = biological target: T1, EphA2-ephrinA1 binding (Mus musculus, UniProt Q03145); test: ELISA EphA2-ephrinA1 binding (displacement and saturation); conditions: 200 µM for 1 hour, some wells washed before adding 50 ng/ml ephrinA1-Fc
T1 construct: we immobilized EphA2-Fc- ectodomain on proper ELISA plates; purchased R&D systems 639-A2 (EphA2-Fc); BT602 (biotinylated ephrinA1-Fc)
T1 sequence (Q03145 26-538 limits assumed): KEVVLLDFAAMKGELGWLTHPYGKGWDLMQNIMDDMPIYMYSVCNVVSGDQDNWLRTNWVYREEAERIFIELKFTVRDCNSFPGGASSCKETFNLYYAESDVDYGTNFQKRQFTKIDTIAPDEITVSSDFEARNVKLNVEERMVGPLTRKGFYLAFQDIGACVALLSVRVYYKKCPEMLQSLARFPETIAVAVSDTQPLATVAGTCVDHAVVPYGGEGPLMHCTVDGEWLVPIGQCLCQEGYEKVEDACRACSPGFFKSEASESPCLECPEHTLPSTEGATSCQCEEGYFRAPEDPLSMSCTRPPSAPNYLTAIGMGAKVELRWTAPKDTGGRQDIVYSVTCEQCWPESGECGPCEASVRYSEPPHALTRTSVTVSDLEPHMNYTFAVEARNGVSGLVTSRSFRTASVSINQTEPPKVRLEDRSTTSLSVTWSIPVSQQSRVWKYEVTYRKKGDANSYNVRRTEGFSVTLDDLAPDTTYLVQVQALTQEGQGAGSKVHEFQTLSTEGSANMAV

PC3, HT29 and T47D cells = test: MTT cell viability assay; format: cell-based, human; conditions: concentrations studied in phosphorylation studies; 2 hours incubation
Method: Cell viability was evaluated using the MTT colorimetric assay. Cells were plated in 96-well plates at a density of 10^5cells/ml and the day after treated with compounds or 0.5% DMSO for 2, 24, 48, or 72 hours. MTT was added at the final concentration of 1 mg/ml and incubated for 2 hours. The resulting formazan crystals were washed with PBS 100 µl/well and then solubilized with DMSO 200 µl/well. The absorbance was measured at 550 nm using an ELISA plate reader and the results were expressed as the ratio between absorbance of the cell treated with the compounds and untreated cells.
Supplementary file pone.0018128.s003.pdf: Figure S2 Cytotoxicity of bile acids on PC3, HT29 and T47D cells after 2 hours of incubation with the indicated compounds. Data are means±SEM. (PDF) Click here for additional data file.

VEGFR = VEGFR activity, cellular dielectric spectroscopy in HUVE cells; format: cell-based; conditions: 100 µM, 0.1 nM VEGF
Method: Impedance measurement was monitored for 10 minutes. VEGF receptor tyrosine kinase inhibitor II (Calbiochem-Merck, Darmstadt, Germany) was used as a standard reference.
These assays were performed at CEREP (Celle L'Evescault, France).
A, B) EGFR phosphorylation was induced by 30 ng/ml and 10 ng/ml EGF on PC3 (A) and HT29 (B) cells, respectively. […] Data are the means of two experiments ± st. err.

EphB4 = biological target: T2, EphB4 (Homo sapiens, UniProt P54760); test: Phosphorylated-EphB4 sandwich ELISA in T47D cell lysates; format: cell-based; conditions: T47D cells, 3 µg/ml ephrinB2-Fc preclustered with 0.3 µg/ml IgG Fc fragment; read-out: IC50 EphB4 phosphorylation
T2 construct: EphB4 phosphorylation on T47D breast cancer cells; endogenous in cells; host or cells: T47D
T2 sequence (P54760 16-987): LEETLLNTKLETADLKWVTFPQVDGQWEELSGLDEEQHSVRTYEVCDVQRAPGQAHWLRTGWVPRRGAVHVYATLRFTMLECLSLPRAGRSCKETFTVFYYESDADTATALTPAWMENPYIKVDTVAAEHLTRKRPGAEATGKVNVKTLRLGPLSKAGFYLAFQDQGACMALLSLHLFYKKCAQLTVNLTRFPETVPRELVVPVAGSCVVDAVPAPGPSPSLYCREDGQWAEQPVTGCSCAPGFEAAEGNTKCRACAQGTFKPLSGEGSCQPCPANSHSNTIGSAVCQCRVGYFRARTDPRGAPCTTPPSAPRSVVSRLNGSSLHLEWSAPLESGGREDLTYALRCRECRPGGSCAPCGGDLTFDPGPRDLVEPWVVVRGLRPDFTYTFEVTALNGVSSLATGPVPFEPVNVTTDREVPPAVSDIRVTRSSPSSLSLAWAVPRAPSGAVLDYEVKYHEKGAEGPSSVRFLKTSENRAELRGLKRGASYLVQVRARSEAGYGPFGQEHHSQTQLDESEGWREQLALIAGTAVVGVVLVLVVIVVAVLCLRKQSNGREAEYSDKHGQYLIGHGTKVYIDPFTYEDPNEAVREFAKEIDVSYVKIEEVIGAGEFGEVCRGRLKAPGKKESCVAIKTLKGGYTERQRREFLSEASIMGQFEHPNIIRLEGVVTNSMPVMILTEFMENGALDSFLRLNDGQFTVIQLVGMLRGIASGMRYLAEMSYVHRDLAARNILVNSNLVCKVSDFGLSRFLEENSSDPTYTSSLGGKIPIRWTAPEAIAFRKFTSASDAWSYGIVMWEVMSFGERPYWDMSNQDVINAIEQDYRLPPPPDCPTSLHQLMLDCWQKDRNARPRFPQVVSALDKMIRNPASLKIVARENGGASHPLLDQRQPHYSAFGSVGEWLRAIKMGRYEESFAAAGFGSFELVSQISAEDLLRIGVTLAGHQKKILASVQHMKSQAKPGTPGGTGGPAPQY
Method: Cells were seeded in 12-well plates at concentration of 10^5cells/ml in complete medium until they reached ∼40% confluence and serum starved overnight. The day after cells were treated with compounds under study, vehicle or standard drug, stimulated with the proper agonist, rinsed with sterile PBS and solubilized in lysis buffer. The lysates were resuspended and rocked at 4°C for 30 minutes and then centrifuged at 14000 xg for 5 minutes. The protein content of supernatant was measured with BCA protein assay kit (Thermo scientific), standardized to 200 µg/ml and transferred into a clean test tube ready to be used.
EphA2-, EphB4- and EGFR-phosphorylation were measured in cell lysates using DuoSet®IC Sandwich ELISA (RnD Systems, #DYC4056, #DYC4057 and #DYC1095, respectively) following manufacturer's protocol. […] The day after wells were washed and blocked for 1 hour at room temperature. After that, wells were washed and 100 µl/well of lysates were added at room temperature for 2 hours; wells were washed and incubated with Detection Antibody at room temperature for 2 hours.
EphB4 phosphorylation was stimulated with 3 µg/ml ephrinB2-Fc, preclustered with 0.3 µg/ml IgG Fc fragment on T47D cells (G, H, I). […] Phospho-EphA2/B4 levels are relative to ephrinA1/B2-Fc+DMSO. Data are the means of at least three independent experiment ± st. err. […]

SMILES: C[C@H](CCC(=O)O)[C@H]1CC[C@H]2[C@@H]3CC[C@@H]4C[C@H](O)CC[C@]4(C)[C@H]3CC[C@]12C [LCA, lithocholic acid]
- displacement of ephrin-A1-Fc ectodomain from immobilized EphA-Fc ectodomains (EphA kinases): dose-dependently displaced
- reversibility of binding (displacement with or without washing) (EphA2-ephrinA1 binding): The displacement was detected only where the washing was not performed
- toxicity (MTT) (PC3, HT29 and T47D cells): devoid of any toxicity
- effect on VEGFR activity as agonist or antagonist (VEGFR): failed to affect activity
- IC50 (EphB4): 141 µM
